Data reported in paper PMC8151276, “An Integrated Approach toward NanoBRET Tracers for Analysis of GPCR Ligand Engagement” (Molecules, 2021).

Legend:
Type in all cases: binding
[1] = biological target: T1, C3AR1 (Homo sapiens, UniProt Q16581); experiment: NanoBRET screen HiBiT-C3AR1 in HEK293
T1 construct: purchased Promega (in-house HiBiT-GPCR construct library, NanoBRET)
T1 sequence (Q16581 1-482): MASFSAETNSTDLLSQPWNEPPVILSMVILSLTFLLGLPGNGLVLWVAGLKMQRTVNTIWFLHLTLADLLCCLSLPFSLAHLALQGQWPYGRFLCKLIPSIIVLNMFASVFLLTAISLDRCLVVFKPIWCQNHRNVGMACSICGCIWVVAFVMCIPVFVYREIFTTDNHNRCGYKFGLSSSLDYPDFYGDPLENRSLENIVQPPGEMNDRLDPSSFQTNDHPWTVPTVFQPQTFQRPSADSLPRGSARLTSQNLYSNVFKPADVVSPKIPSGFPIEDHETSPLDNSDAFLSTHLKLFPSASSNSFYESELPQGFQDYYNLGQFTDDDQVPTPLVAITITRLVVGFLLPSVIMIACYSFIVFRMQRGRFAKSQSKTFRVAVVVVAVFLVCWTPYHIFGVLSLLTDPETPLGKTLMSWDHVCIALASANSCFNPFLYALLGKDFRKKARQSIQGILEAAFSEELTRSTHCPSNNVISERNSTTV
Procedure: (§1) Each tracer candidate was screened across the entire library of HiBiT-GPCR constructs using NanoBRET as the detection modality. As depicted in Figure 4A, the specificity of interactions was evaluated through decrease in BRET due to competitive displacement of a bound tracer by excess parental compound. Each tracer was analyzed for binding to each HiBiT-GPCR fusion in the absence and in the presence of competing parental compound. Briefly, HEK293 cells were transfected with HiBiT-GPCR constructs diluted into promoterless DNA to reduce expression and maximize translocation to the cell surface. Each tracer candidate was then screened at concentrations of 1 μM and 0.1 μM across cells expressing these fusions. Cells were treated for 1.5 h with tracer either alone or in the presence of 20 μM competing parental compound (i.e., control). BRET was measured upon addition of purified LgBiT and subsequent complementation with HiBiT genetically fused to a GPCR. The specificity of interactions was assessed through a decrease in BRET signal due to competitive displacement of the bound tracer. To further gauge the robustness of these interactions, the fold response over the control (i.e., BRETtracer/BRETcontrol) was calculated. We chose a 1.5-fold response, which translates to ≥7-fold signal over noise as the minimal threshold required to score an interaction as positive. […]. Below we highlight the screening results obtained for our exemplary fluorescent tracers based on Clozapine, Amitriptyline and AZD1283.
(§2) HiBiT-GPCR DNA constructs were diluted in 10 mM Tris pH 8 to a final concentration of 0.01 μg/μL, arrayed in 96-well plates and stored at −20 °C. For transfection, HEK293 cells were suspended in Opti-MEM (without phenol red) supplemented with 2% fetal bovine serum (Seradigm) and 100 units/mL penicillin–streptomycin (Gibco) at a final concentration of 220,000 cells/mL and dispensed into white 96-well plates at 90 μL/well. Subsequent transfections and screens were carried using an Agilent Bravo Automated Liquid Handling Platform. First, the 96-well HiBiT DNA arrays were diluted 25-fold in Opti-MEM (without serum or phenol red) to a final concentration of 0.0004 μg/μL and 20 μL of the diluted DNAs were transferred into new 96-well plates. Next, promoterless carrier DNA (1 μg/μL) was diluted 25-fold (0.04 μg/μL) and then dispensed into the diluted arrays at 20 μL/well. Following brief mixing, Viafect transfection reagent (Promega) diluted 16-fold into Opti-MEM was dispensed into the plates at 40 μL/well. After mixing by pipetting, plates were incubated for 10 min on the pipetting station deck. The DNA-transfection reagent complexes were then added to plates containing cells. To facilitate the screen, 10 μL of DNA-transfection reagent complexes were added in duplicates to the top 4 and bottom 4 rows, resulting in two identical 48-well arrays per plate. Plates with transfected cells were incubated for 18–20 h at 37 °C/5% CO2. A screen of each tracer across the entire library using two different concentrations requires duplicate plates of transfected cells. Depending on the number of tracers being screened, transfections can be scaled up using the same ratios. The next day, for each tracer, four 20× screening solutions in tracer dilution buffer (Promega) were prepared: two duplicates at final concentration of 20 μM and two duplicates at a final concentration of 2 μM. A competing unmodified compound was added to one of each duplicate at a final concentration of 400 μM. The four resulting solutions were diluted 4-fold in Opti-MEM without serum or phenol red to generate 5× solutions (5 µM and 0.5 µM tracer +/− 100 μM competing compound). To screen the library, a BioTek MultiFlo FX liquid dispenser was used to dispense 22.5 µL of tracer solution to the top 4 rows and 22.5 µL tracer + competing compound solution to the 4 bottom rows. Plates were briefly mixed on an orbital shaker and incubated for 1.5 h at room temperature. […]

[2] = biological target: T2, CX3CR1 (Homo sapiens, UniProt P49238); experiment: NanoBRET screen HiBiT-CX3CR1 in HEK293
T2 construct: purchased Promega (in-house HiBiT-GPCR construct library, NanoBRET)
T2 sequence (P49238 1-355): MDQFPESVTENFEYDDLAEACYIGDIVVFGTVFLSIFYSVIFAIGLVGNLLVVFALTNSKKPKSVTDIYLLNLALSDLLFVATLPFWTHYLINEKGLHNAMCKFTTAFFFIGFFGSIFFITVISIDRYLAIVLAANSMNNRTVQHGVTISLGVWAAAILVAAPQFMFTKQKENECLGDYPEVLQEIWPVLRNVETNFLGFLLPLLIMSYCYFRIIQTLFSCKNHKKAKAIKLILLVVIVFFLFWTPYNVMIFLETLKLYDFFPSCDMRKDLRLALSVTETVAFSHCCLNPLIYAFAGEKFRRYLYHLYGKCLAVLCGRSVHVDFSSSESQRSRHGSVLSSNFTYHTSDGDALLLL
Procedure: as §1, §2

[3] = biological target: T3, LHCGR (Homo sapiens, UniProt P22888); experiment: NanoBRET screen HiBiT-LHCGR in HEK293
T3 construct: purchased Promega (in-house HiBiT-GPCR construct library, NanoBRET)
T3 sequence (P22888 27-699): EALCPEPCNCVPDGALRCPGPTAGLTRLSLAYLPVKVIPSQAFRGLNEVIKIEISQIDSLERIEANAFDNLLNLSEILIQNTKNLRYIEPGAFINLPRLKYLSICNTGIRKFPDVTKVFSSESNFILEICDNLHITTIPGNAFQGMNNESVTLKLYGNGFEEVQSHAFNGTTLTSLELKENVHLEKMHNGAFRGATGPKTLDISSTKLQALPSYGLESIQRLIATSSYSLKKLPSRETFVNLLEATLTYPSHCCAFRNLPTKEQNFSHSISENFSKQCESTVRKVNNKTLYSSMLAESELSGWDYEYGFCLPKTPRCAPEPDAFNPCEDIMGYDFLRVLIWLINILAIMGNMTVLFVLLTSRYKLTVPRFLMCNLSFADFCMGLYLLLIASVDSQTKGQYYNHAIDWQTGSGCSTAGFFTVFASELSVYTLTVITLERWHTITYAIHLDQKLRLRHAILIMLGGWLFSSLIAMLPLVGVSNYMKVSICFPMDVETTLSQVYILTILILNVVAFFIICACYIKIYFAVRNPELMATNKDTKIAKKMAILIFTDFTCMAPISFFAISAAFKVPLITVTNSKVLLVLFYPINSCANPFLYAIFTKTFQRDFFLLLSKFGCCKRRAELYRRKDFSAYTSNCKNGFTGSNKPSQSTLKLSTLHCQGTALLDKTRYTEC
Procedure: as §1, §2

[4] = biological target: T4, CCKBR (Homo sapiens, UniProt P32239); experiment: NanoBRET screen HiBiT-CCKBR in HEK293
T4 construct: purchased Promega (in-house HiBiT-GPCR construct library, NanoBRET)
T4 sequence (P32239 1-447): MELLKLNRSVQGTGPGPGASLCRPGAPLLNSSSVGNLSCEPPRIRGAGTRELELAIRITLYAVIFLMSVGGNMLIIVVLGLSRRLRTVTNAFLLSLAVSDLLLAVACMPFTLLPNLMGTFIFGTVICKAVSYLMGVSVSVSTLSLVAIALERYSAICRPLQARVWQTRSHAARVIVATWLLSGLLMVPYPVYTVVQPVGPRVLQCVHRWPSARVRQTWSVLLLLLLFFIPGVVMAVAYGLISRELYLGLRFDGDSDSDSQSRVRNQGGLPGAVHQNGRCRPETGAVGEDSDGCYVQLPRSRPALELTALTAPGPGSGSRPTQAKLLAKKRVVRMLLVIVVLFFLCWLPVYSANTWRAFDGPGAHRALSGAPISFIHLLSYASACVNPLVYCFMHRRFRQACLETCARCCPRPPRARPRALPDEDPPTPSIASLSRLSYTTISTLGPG
Procedure: as §1, §2

SMILES	NanoBRET Fold Response ([1]; 0.1μM tracer)	NanoBRET Fold Response ([1]; 1μM tracer)	NanoBRET Fold Response ([2]; 0.1μM tracer)	NanoBRET Fold Response ([2]; 1μM tracer)	NanoBRET Fold Response ([3]; 0.1μM tracer)	NanoBRET Fold Response ([3]; 1μM tracer)	NanoBRET Fold Response ([4]; 0.1μM tracer)	NanoBRET Fold Response ([4]; 1μM tracer)	NanoBRET Fold Response ([1]; C3AR1, 0.1μM tracer)	NanoBRET Fold Response ([1]; C3AR1, 1μM tracer)	NanoBRET Fold Response ([2]; CX3CR1, 0.1μM tracer)	NanoBRET Fold Response ([2]; CX3CR1, 1μM tracer)	NanoBRET Fold Response ([3]; LHCGR, 0.1μM tracer)	NanoBRET Fold Response ([3]; LHCGR, 1μM tracer)	NanoBRET Fold Response ([4]; CCKBR, 0.1μM tracer)	NanoBRET Fold Response ([4]; CCKBR, 1μM tracer)
COc1ccc2c(n1)c(CCNC(C)=O)cn2CCNC(=O)CCc1ccc2n1[B-](F)(F)[N+]1=C(c3ccc[nH]3)C=CC1=C2 [Azamelatonin-1-NB590]	0.88	0.98	0.93	1.05	1.03	1.05	1.01	1.02								
COc1ccc2[nH]c(-c3ccc(CNC(=O)CCOCCOCCOCCOCCNC(=O)CCc4ccc5n4[B-](F)(F)[N+]4=C(c6ccc[nH]6)C=CC4=C5)cc3)c(CCNC(C)=O)c2n1 [AzomelatoninICO9-2-NB590]	0.78	0.87	1.07	1.19	1.01	0.88	1.13	1.16								
O=C(CCOCCOCCOCCOCCNC(=O)CCc1ccc2n1[B-](F)(F)[N+]1=C(c3ccc[nH]3)C=CC1=C2)NCCCN1CCN(C2=Nc3cc(Cl)ccc3Nc3ccccc32)CC1 [Clozapine-a-2-NB590]									1.18	1.21	1.08	1.07	0.93	1.05	1.01	1.01
CN1CCN(C2=Nc3cc(Cl)ccc3Nc3ccc(CNC(=O)CCOCCOCCOCCOCCNC(=O)CCc4ccc5n4[B-](F)(F)[N+]4=C(c6ccc[nH]6)C=CC4=C5)cc32)CC1 [Clozapine-b-2-NB590]									0.99	1.02	0.98		1.06	0.99	0.99	1.07
CN1CCN(C2=Nc3cc(Cl)ccc3N(CC(=O)NCCOCCOCCOCCOCCNC(=O)CCc3ccc4n3[B-](F)(F)[N+]3=C(c5ccc[nH]5)C=CC3=C4)c3ccccc32)CC1 [Clozapine-c-2-NB590]									0.99	1.00	0.95	0.92	1.05	1.07	1.04	1.01
